Test results reported in paper PMC9831606, “Computational design of peptides to target NaV1.7 channel with high potency and selectivity for the treatment of pain” (eLife, 2022).

How the values were obtained:
male and female rats = experiment: von Frey mechanical withdrawal threshold after oxaliplatin CIPN induction; type: in vivo, rat; details: after single i.p. oxaliplatin 6 mg/kg, 3 days; baseline 72.9±2.7 grams
Experimental: Chronic pain models: Chemotherapy induced neuropathy was induced in rats with oxaliplatin after i.t catheter placement recovery with a single i.p. dose of oxaliplatin 6 mg/kg. The animals were allowed to recover for 3 days and then were assessed in the open field assay to ensure motor function and with a von Frey assay to assess allodynia to verify their pain state. The von Frey assay with an electronic aesthesiometer quantified the average baseline for a group of male and female rats to be 72.9±2.7 grams for the mechanical withdrawal threshold after cannulation but before CIPN model induction which fell to 27.9±2.7 grams indicating allodynia. On the day of treatment rats were assessed for baseline measures and then treated and assayed for […] responses.

rats = details: cited from earlier work

| Compound | mechanical withdrawal threshold (von Frey, electronic aesthesiometer) (male and female rats) [grams] | motor effect after intrathecal administration (rats; 2.4 µg i.t., ref Schmalhofer et al., 2008) | maximum tolerated dose in rats (rats; in 10 µL, intrathecal, ref Flinspach et al., 2017) [µg] |
| --- | --- | --- | --- |
| O=C1[O][Pt]2([NH][C@@H]3CCCC[C@H]3[NH]2)[O]C1=O [oxaliplatin] | 27.9±2.7 |  |  |
| CSCC[C@@H]1NC(=O)CNC(=O)[C@H](CCC(=O)O)NC(=O)[C@@H]2CSSC[C@H](NC(=O)[C@@H](N)Cc3ccc(O)cc3)C(=O)N[C@@H](CCC(N)=O)C(=O)N[C@@H](CCCCN)C(=O)N[C@@H](Cc3c[nH]c4ccccc34)C(=O)N[C@@H](CCSC)C(=O)N[C@@H](Cc3c[nH]c4ccccc34)C(=O)N[C@@H]([C@@H](C)O)C(=O)N[C@H]3CSSC[C@H](NC(=O)[C@H](C(C)C)NC1=O)C(=O)N[C@@H](CCCNC(=N)N)C(=O)N[C@@H](CC(C)C)C(=O)N[C@@H](Cc1c[nH]c4ccccc14)C(=O)N[C@H](C(=O)N[C@@H](CCCCN)C(=O)N[C@@H](CCCCN)C(=O)N[C@@H](CCCCN)C(=O)N[C@@H](CC(C)C)C(=O)N[C@@H](Cc1c[nH]c4ccccc14)C(=O)O)CSSC[C@H](NC(=O)[C@H](CCCCN)NC(=O)[C@H](CCCNC(=N)N)NC(=O)[C@H](CCC(=O)O)NC(=O)[C@H](CO)NC(=O)[C@H](CC(=O)O)NC3=O)C(=O)N2 [WT ProTx-II] |  | laming effect | 2 |
